Reference: US11584747B2, “Substituted pyridopyrimidinonyl compounds useful as T cell activators” (BRISTOL-MYERS SQUIBB COMPANY, priority 2019, dated 2023)

What was measured:
human DGKα = human DGKα (Homo sapiens (Human), UniProt P23743); assay: DGKα ADPGLO assay (detergent/lipid micelle substrate); type: biochemical; details: ADPGLO assay; read-out: DGK alpha ADPGLO IC50
Experimental: DGK Alpha ADPGLO (Truncated) IC50 (uM)
The detergent/lipid micelle was prepared by combining 15 g phosphatidylserine (Avanti 840035P) and 1 g diacylglycerol (8008110) and dissolving into 150 mL chloroform in a 2 L round bottom flask. Chloroform was removed under high vacuum by rotary evaporation. […] The lipid/detergent solution was split into 5 mL aliquots and stored at −80° C.

whole blood (pERK) = assay: pERK Whole Blood; type: cell-based
human DGKζ = human DGKζ (Homo sapiens (Human), UniProt Q13574); assay: DGKζ LIPGLO assay (extruded liposome substrate, ADP-Glo luminescence); type: biochemical; details: liposome (LIPGLO) assay; read-out: DGK zeta (liposome assay) IC50
human DGKζ, sequence (Q13574 other isoform, or with tags, fused parts or gaps): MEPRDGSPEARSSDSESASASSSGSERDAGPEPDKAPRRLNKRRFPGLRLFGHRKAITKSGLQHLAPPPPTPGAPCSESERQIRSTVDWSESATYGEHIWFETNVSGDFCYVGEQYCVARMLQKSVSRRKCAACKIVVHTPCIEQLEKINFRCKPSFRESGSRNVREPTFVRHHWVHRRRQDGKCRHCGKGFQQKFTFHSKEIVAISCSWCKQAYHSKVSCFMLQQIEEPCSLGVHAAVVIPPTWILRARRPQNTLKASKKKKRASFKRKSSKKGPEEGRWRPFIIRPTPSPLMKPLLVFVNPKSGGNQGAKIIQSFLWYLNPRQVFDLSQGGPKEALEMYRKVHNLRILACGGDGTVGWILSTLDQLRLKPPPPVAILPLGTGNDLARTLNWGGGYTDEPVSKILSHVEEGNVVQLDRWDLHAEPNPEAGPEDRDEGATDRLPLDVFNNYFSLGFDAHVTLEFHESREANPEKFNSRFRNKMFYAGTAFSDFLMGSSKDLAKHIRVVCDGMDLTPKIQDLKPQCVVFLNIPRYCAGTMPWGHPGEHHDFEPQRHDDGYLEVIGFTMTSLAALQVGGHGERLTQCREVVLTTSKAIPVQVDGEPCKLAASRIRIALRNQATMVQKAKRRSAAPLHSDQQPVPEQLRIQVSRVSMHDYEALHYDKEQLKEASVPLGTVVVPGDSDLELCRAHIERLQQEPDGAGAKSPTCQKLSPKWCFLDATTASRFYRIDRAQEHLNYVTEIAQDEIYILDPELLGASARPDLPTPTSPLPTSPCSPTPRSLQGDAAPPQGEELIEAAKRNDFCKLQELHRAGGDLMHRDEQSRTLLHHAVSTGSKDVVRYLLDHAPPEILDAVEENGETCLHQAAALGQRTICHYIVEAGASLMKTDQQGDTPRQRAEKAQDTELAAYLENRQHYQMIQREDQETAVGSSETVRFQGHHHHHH

human DGKα, sequence (P23743 whole entry, looked up, the tested form may be a part): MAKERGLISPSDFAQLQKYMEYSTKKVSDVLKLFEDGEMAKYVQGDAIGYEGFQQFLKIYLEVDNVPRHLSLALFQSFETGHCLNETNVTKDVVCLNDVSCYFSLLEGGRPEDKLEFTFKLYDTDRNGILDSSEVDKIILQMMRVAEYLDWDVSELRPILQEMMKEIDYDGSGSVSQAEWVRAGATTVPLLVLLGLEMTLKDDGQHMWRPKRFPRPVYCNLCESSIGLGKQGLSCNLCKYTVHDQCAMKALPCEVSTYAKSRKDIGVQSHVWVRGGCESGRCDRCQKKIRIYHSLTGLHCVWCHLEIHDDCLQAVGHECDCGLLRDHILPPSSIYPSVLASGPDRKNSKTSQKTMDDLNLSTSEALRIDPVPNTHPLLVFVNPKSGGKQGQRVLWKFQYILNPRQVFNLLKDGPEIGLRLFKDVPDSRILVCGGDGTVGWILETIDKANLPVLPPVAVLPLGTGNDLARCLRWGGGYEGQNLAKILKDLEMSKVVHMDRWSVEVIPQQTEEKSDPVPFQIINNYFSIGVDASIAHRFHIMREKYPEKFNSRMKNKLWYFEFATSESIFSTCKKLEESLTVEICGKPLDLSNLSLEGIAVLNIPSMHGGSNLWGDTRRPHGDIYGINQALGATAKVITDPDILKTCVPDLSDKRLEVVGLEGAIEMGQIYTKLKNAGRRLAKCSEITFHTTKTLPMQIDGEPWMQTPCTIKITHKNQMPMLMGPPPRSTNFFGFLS

SMILES	IC50 (human DGKα) [nM]	EC50 (whole blood (pERK)) [nM]	IC50 (human DGKζ) [nM]
CCOC[C@@H]1CN(c2nc(=O)n(C)c3ccc(C#N)nc23)[C@@H](C)CN1C(CC)c1ccc(C(F)(F)F)cc1 (stereo partly drawn) [Example 401, 4-((2S,5S)-5-(ethoxymethyl)-2-methyl-4-(1-(4-(trifluoromethyl)phenyl)propyl)piperazin-1-yl)-1-methyl-2-oxo-1,2-dihydropyrido[3,2-d]pyrimidine-6-carbonitrile]	160	4890	230
CCC(c1ccc(OCC2CN(C)C2)cc1)N1C[C@H](C)N(c2nc(=O)n(C)c3ccc(C#N)nc23)C[C@H]1CC (stereo partly drawn) [Example 344, 4-((2 S, 5R)-5-ethyl-2-methyl-4-(1-(4-((1-methylazetidin-3-yl)methoxy)phenyl)propyl)piperazin-1-yl)-1-methyl-2-oxo-1,2-dihydropyrido[3,2-d]pyrimidine-6-carbonitrile]	10100	20000	17100
CCC(c1ccc(OCC2(C)CC2)cc1)N1C[C@H](C)N(c2nc(=O)n(C)c3ccc(C#N)nc23)C[C@H]1CC (stereo partly drawn) [Example 346, 4-((2S,5R)-5-ethyl-2-methyl-4-(1-(4-((1-methylcyclopropyl)methoxy)phenyl)propyl)piperazin-1-yl)-1-methyl-2-oxo-1,2-dihydropyrido[3,2-d]pyrimidine-6-carbonitrile]	1280	190	1240
CCC(c1ccc(F)c(F)c1)N1C[C@H](C)N(c2nc(=O)n(C)c3ccc(C#N)nc23)C[C@H]1CC (stereo partly drawn) [Example 320, 4-((2S,5R)-4-(1-(3,4-difluorophenyl)propyl)-5-ethyl-2-methylpiperazin-1-yl)-1-methyl-2-oxo-1,2-dihydropyrido[3,2-d]pyrimidine-6-carbonitrile]	420	930	620
CC[C@H]1CN(C(C)c2ccc(C(F)(F)F)cc2)[C@H](CC)CN1c1nc(=O)n(C)c2ccc(C(F)F)nc12 (stereo partly drawn) [Example 440, 4-((2S,5R)-2,5-Diethyl-4-(1-(4-(trifluoromethyl)phenyl)ethyl)piperazin-1-yl)-6-(difluoromethyl)-1-methylpyrido[3,2-d]pyrimidin-2(1H)-one]	1140	8070	44600
CCC(c1ccc(F)c(F)c1)N1C[C@H](C)N(c2nc(=O)n(C)c3ccc(C#N)nc23)C[C@H]1CC (stereo partly drawn) [Example 319, 4-((2S,5R)-4-(1-(3,4-difluorophenyl)propyl)-5-ethyl-2-methylpiperazin-1-yl)-1-methyl-2-oxo-1,2-dihydropyrido[3,2-d]pyrimidine-6-carbonitrile]	52	130	22
CC(c1ccc(CN2CC3(COC3)C2)cc1)N1C[C@H](C)N(c2nc(=O)n(C)c3ccc(C#N)nc23)C[C@H]1C (stereo partly drawn) [Example 393, 4-((2S,5R)-4-(1-(4-((2-oxa-6-azaspiro[3.3]heptan-6-yl)methyl)phenyl)ethyl)-2,5-dimethylpiperazin-1-yl)-1-methyl-2-oxo-1,2-dihydropyrido[3,2-d]pyrimidine-6-carbonitrile]	23500	3450	125000
CCC(c1ccc(C(C)(C)C#N)cc1)N1C[C@H](C)N(c2nc(=O)n(C)c3ccc(C#N)nc23)C[C@H]1CC (stereo partly drawn) [Example 318, 4-((2S,5R)-4-(1-(4-(2-cyanopropan-2-yl)phenyl)propyl)-5-ethyl-2-methylpiperazin-1-yl)-1-methyl-2-oxo-1,2-dihydropyrido[3,2-d]pyrimidine-6-carbonitrile]	620	3070	1570
[2H]C([2H])([2H])n1c(=O)nc(N2C[C@@H](CC)N(C(C)c3ccc(C(F)(F)F)cc3)C[C@@H]2C)c2nc(Cl)ccc21 (single isomer, unassigned) [Example 417]	170	20000	520
[2H]C([2H])([2H])n1c(=O)nc(N2C[C@@H](CC)N(C(C)c3ccc(C(F)(F)F)cc3)C[C@@H]2C)c2nc(Cl)ccc21 (single isomer, unassigned) [Example 418]	92	20000	8710
CCC(c1nc(C2CC2)no1)N1C[C@H](CC)N(c2nc(=O)n(C)c3ccc(C#N)nc23)C[C@H]1CC (stereo partly drawn) [Example 364, 4-((2S,5R)-4-(1-(3-cyclopropyl-1,2,4-oxadiazol-5-yl)propyl)-2,5-diethylpiperazin-1-yl)-1-methyl-2-oxo-1,2-dihydropyrido[3,2-d]pyrimidine-6-carbonitrile]	53	1800	330
CCC(c1ccc(OCC2CCOCC2)cc1)N1C[C@H](C)N(c2nc(=O)n(C)c3ccc(C#N)nc23)C[C@H]1CC (stereo partly drawn) [Example 337, 4-((2S,5R)-5-ethyl-2-methyl-4-(1-(4-((tetrahydro-2H-pyran-4-yl)methoxy)phenyl)propyl)piperazin-1-yl)-1-methyl-2-oxo-1,2-dihydropyrido[3,2-d]pyrimidine-6-carbonitrile]	81	54	100
CC[C@@H]1CN(c2nc(=O)[nH]c3ccc(C#N)nc23)[C@@H](C)CN1C(C)c1ccc(C(F)(F)F)cc1 (single isomer, unassigned) [Example 414]	1490	160	11300
CCC1CN(c2nc(=O)n(C)c3ccc(C#N)nc23)[C@@H](C)CN1C(C)c1ccc(C(F)(F)F)c(CN2CCOCC2)c1 (single isomer, unassigned) [Example 351]	180	380	1040
CCC(c1ccc(OCC2COC2)cc1)N1C[C@H](C)N(c2nc(=O)n(C)c3ccc(C#N)nc23)C[C@H]1CC (stereo partly drawn) [Example 341, 4-((2S,5R)-5-ethyl-2-methyl-4-(1-(4-(oxetan-3-ylmethoxy)phenyl)propyl)piperazin-1-yl)-1-methyl-2-oxo-1,2-dihydropyrido[3,2-d]pyrimidine-6-carbonitrile]	61	2980	130
CCC(c1ccc(OCCC(F)(F)F)cc1)N1C[C@H](C)N(c2nc(=O)n(C)c3ccc(C#N)nc23)C[C@H]1CC (single isomer, unassigned) [Example 335]	25	140	120

Next, values leading:

IC50 (human DGKα) [nM]	EC50 (whole blood (pERK)) [nM]	IC50 (human DGKζ) [nM]	SMILES
640	11000	2830	CC[C@@H]1CN(c2nc(=O)n(C)c3ccc(C#N)nc23)[C@@H](C)CN1C(C)c1ccc(C2CCOCC2)cc1 (stereo partly drawn) [Example 330, 4-((2 S,5R)-5-ethyl-2-methyl-4-(1-(4-(tetrahydro-2H-pyran-4-yl)phenyl)ethyl)piperazin-1-yl)-1-methyl-2-oxo-1,2-dihydropyrido[3,2-d]pyrimidine-6-carbonitrile]
950	9590	2210	CC[C@H]1CN(C(C)c2ccc(C(F)(F)F)cc2)[C@H](CC)CN1c1nc(=O)n(C)c2ccc(OC(F)F)nc12 (stereo partly drawn) [Example 445, 4-((2S,5R)-2,5-Diethyl-4-(1-(4-(trifluoromethyl)phenyl)ethyl)piperazin-1-yl)-6-(difluoromethoxy)-1-methylpyrido[3,2-d]pyrimidin-2(1H)-one]
400	640	31000	CC(c1ccc(C(F)(F)F)cc1)N1C[C@H](CO)N(c2nc(=O)n(C)c3ccc(C#N)nc23)C[C@H]1C (single isomer, unassigned) [Example 407]
520	670	21	CC[C@@H]1CN(c2nc(=O)n(C)c3ccc(C#N)nc23)[C@@H](C)CN1C(c1ccc(OC(C)C)cc1)C(C)C (stereo partly drawn) [Example 323, 4-((2S,5R)-5-ethyl-4-(1-(4-isopropoxyphenyl)-2-methylpropyl)-2-methylpiperazin-1-yl)-1-methyl-2-oxo-1,2-dihydropyrido[3,2-d]pyrimidine-6-carbonitrile]
230	57	650	CC[C@@H]1CN(c2nc(=O)n(C)c3ccc(C#N)nc23)[C@@H](C)CN1C(c1ccc(OC)cc1)C(C)C (stereo partly drawn) [Example 313, 4-((2S,5R)-5-ethyl-4-(1-(4-methoxyphenyl)-2-methylpropyl)-2-methylpiperazin-1-yl)-1-methyl-2-oxo-1,2-dihydropyrido[3,2-d]pyrimidine-6-carbonitrile]
38	940	33	CCC(c1ccc(C2OCCO2)cc1)N1C[C@H](C)N(c2nc(=O)n(C)c3ccc(C#N)nc23)C[C@H]1CC (stereo partly drawn) [Example 331, 4-((2S,5R)-4-(1-(4-(1,3-dioxolan-2-yl)phenyl)propyl)-5-ethyl-2-methylpiperazin-1-yl)-1-methyl-2-oxo-1,2-dihydropyrido[3,2-d]pyrimidine-6-carbonitrile]
820	1890	1240	CC[C@@H]1CN(c2nc(=O)n(C)c3ccc(C#N)nc23)[C@@H](CO)CN1C(C)c1ccc(C(F)(F)F)cc1 (single isomer, unassigned) [Example 411]
160	20000	700	CCC(c1ccc(C(F)(F)F)cc1)N1C[C@H](C)N(c2nc(=O)n(C)c3ccc(C#N)nc23)C[C@H]1COC (single isomer, unassigned) [Example 399]
72	20000	1080	COC[C@H]1CN(C(C)c2ccc(C(F)(F)F)cc2)[C@H](C)CN1c1nc(=O)n(C)c2ccc(C#N)nc12 (single isomer, unassigned) [Example 409]
200	20000	370	C[C@@H]1CN(c2nc(=O)n(C)c3ccc(C#N)nc23)[C@@H](C)CN1C(c1ccc(F)cc1)C12CC(C(F)(F)F)(C1)C2 (stereo partly drawn) [Example 450, 4-((2S,5R)-4-((4-fluorophenyl)(3-(trifluoromethyl)bicyclo[1.1.1]pentan-1-yl)methyl)-2,5-dimethylpiperazin-1-yl)-1-methyl-2-oxo-1,2-dihydropyrido[3,2-d]pyrimidine-6-carbonitrile]
